From patent US20060030616A1, “Anhydride modified cantharidin analogues useful in the treatment of cancer” (priority 1998, published 2006)

Columns and labels:
[1] = tested on: L1210 cells; assay: Checkpoint abrogation after 6 Gy radiation, flow cytometry; assay type: cell-based, murine; details: 12 h after drug
Procedure: (§1) The cells are fixed in 70% ethanol and stored at −20° C. until analysis is performed (1-2 weeks). After fixing, the cells are pelleted and incubated in PBS containing propidium iodide ([…]) and RNase A (200 mg/ml) for at least 30 min at room temperature. The samples (2×10^4 events) are analysed using a Becton Dickson FACScan, fluorescence is collected in fluorescence detector 2 (FL2), filter 575/30 nm band pass. Cell cycle distribution is assessed using Cell Quest software (Becton Dickson).
(§2) The ability of the protein phosphatase inhibitors to abrogate the G1 or G2 checkpoint of the cell cycle may be determined by cell cycle analysis using flow cytometry. Briefly, asynchronous cell cultures are harvested 18 h after 6 Gy irradiation and/or 12 h incubation with the protein phosphatase inhibitor. Depending upon the p53 status of the cell line, radiation treatment alone will induce arrest in either G1 and/or G2 phase of the cell cycle.
(§3) If the protein phosphatase inhibitor abrogates the G2 checkpoint then the cells will not arrest in the G2 phase of the cell cycle and the cells will continue through the cell cycle and accumulate in the G1 phase of the cell cycle only. Similarily if the protein phosphatase inhibitors abrogates the G1 checkpoint then the cells will not arrest in the G1 phase of the cell cycle and accumulate in the G2 phase of the cell cycle only. Cell cycle analysis using propidium iodide labelling of DNA has been used extensively in our laboratory to assess the effect of specific anticancer agents that induce S-phase cell cycle arrest and apoptotic cell death (Sakoff, Ackland and Stewart, 1998). Experiments were performed on a Becton Dickinson FACScan and using Cell Quest software.
(§4) The cells were treated with 6 Gy of radiation and then treated with cantharidin 6 h later. The ability to abrogate cell cycle arrest was assessed is 12 h after the addition of the drugs.

[2] = tested on: HL60 cells; assay: MTT cytotoxicity assay, 72 h; assay type: cell-based, human; details: HL60, p53 nul; read-out: IC50 (mean ± SE) after 72 h continuous exposure
Procedure: (§5) Cells in a subconfluent phase are transferred to 96-well microtitre plates. L1210 cells are plated at a density of 1000 cells/well in 100 μl medium, while all other cell lines are plated at a density of 2000-25000 cells/well. The cells are left for 24 h prior to treatment to ensure exponential growth has been achieved, 24 h after plating (day 0), 100 μl of phosphatase inhibitor is added to each well, control wells received 100 μl of medium only. Drug exposure time is 72 h (day 3). The effect of phosphatase inhibition is tested in triplicate over a concentration range of […]−1×10^−8 M. Growth inhibitory effects are evaluated using the MTT assay and absorbance read at […]. The IC50 is the drug concentration at which cell growth is 50% inhibited based on the difference of optical density on day 0 and day 3 of drug exposure. Cytotoxicity is evaluated using a spectrophotometric assay which determines the percentage of cell growth following exposure of the cells to various concentrations of the phosphatase inhibitors for a period of 72 hours. The subsequent dose response curve is used to calculate IC50 values (the drug concentration at which cell growth is 50% inhibited).
(§6) Anti-cancer screening of the protein phosphatase inhibitors is assessed using the MTT assay. This assay determines cell viability by the ability of mitochondrial dehydrogenase to produce formazan crystals from 3-(4,5-dimethylthiazol-2-yl)-2,5-diphenyltetrazolium bromide. The viable cell number/well is directly proportional to the production of formazan, which following solubilization, can be measured spectrophotometrically (540 nm). This technique is also used by the National Cancer Institute to screen for new anticancer agents.
(§7) As described herein a number of cantharidin analogues have been synthesised and tested for their anticancer activity in nine cancer cell lines using the MTT assay after 72 h exposure. These new analogues are shown in FIG. 2 and have been designated MK-1 through to MK-9.

[3] = tested on: HT29 cells; assay: MTT cytotoxicity assay, 72 h; assay type: cell-based, human; details: HT29, p53 mt; read-out: IC50 (mean ± SE) after 72 h continuous exposure
Procedure: as §5, §6, §7

[4] = tested on: HCT116 cells; assay: Checkpoint abrogation after 6 Gy radiation, flow cytometry; assay type: cell-based, human; details: 12 h after drug
Procedure: as §1, §2, §3, §4

[5] = tested on: HL60 cells; assay: as above; assay type: cell-based, human; details: 12 h after drug
Procedure: as §1, §2, §3, §4

[6] = tested on: HT29 cells; assay: as above; assay type: cell-based, human; details: 12 h after drug
Procedure: as §1, §2, §3, §4

O=C1OC(=O)C2C3C=CC(O3)C12 (stereo not shown) [MK-2]
Cell Cycle Distribution, G1 ([1]; L1210, 50 μM, 18 h after 6Gy): 19.0 percentage of total | Cell Cycle Distribution, G2 + M ([1]; L1210, 50 μM, 18 h after 6Gy): 50.1 percentage of total | Cell Cycle Distribution, S ([1]; L1210, 50 μM, 18 h after 6Gy): 27.8 percentage of total | Cell Cycle Distribution, sub G1 ([1]; L1210, 50 μM, 18 h after 6Gy): 4.0 percentage of total | Cell Cycle Distribution, G1 ([1]; L1210, 100 μM, 18 h after 6Gy): 18.4 percentage of total | Cell Cycle Distribution, G2 + M ([1]; L1210, 100 μM, 18 h after 6Gy): 55.8 percentage of total | Cell Cycle Distribution, S ([1]; L1210, 100 μM, 18 h after 6Gy): 23.0 percentage of total | Cell Cycle Distribution, sub G1 ([1]; L1210, 100 μM, 18 h after 6Gy): 3.5 percentage of total | Cell Cycle Distribution, G1 ([1]; L1210, 250 μM, 18 h after 6Gy): 11.2 percentage of total | Cell Cycle Distribution, G2 + M ([1]; L1210, 250 μM, 18 h after 6Gy): 71.9 percentage of total | Cell Cycle Distribution, S ([1]; L1210, 250 μM, 18 h after 6Gy): 10.0 percentage of total | Cell Cycle Distribution, sub G1 ([1]; L1210, 250 μM, 18 h after 6Gy): 6.9 percentage of total | Cell Cycle Distribution, G1 ([1]; L1210, 500 μM, 18 h after 6Gy): 3.4 percentage of total | Cell Cycle Distribution, G2 + M ([1]; L1210, 500 μM, 18 h after 6Gy): 88.4 percentage of total | Cell Cycle Distribution, S ([1]; L1210, 500 μM, 18 h after 6Gy): 2.9 percentage of total | Cell Cycle Distribution, sub G1 ([1]; L1210, 500 μM, 18 h after 6Gy): 5.4 percentage of total | Checkpoint remark ([1]; L1210, 500 μM, 18 h after 6Gy): G1 abrogation | Checkpoint abrogation ([1]; L1210, 6 Gy): abrogated radiation induced G1 arrest | IC50 [2]: 177 ± 3 µM | IC50 [3]: 183 ± 20 µM | Cell Cycle Distribution, G1 ([4]; HCT116, 5 μM, 18 h after 6Gy): 30.8 percentage of total | Cell Cycle Distribution, G2 + M ([4]; HCT116, 5 μM, 18 h after 6Gy): 57.2 percentage of total | Cell Cycle Distribution, S ([4]; HCT116, 5 μM, 18 h after 6Gy): 7.9 percentage of total | Cell Cycle Distribution, sub G ([4]; HCT116, 5 μM, 18 h after 6Gy): 3.7 percentage of total | Cell Cycle Distribution, G1 ([4]; HCT116, 50 μM, 18 h after 6Gy): 32.8 percentage of total | Cell Cycle Distribution, G2 + M ([4]; HCT116, 50 μM, 18 h after 6Gy): 57.3 percentage of total | Cell Cycle Distribution, S ([4]; HCT116, 50 μM, 18 h after 6Gy): 6.3 percentage of total | Cell Cycle Distribution, sub G ([4]; HCT116, 50 μM, 18 h after 6Gy): 3.3 percentage of total | Cell Cycle Distribution, G1 ([4]; HCT116, 100 μM, 18 h after 6Gy): 29.9 percentage of total | Cell Cycle Distribution, G2 + M ([4]; HCT116, 100 μM, 18 h after 6Gy): 59.6 percentage of total | Cell Cycle Distribution, S ([4]; HCT116, 100 μM, 18 h after 6Gy): 7.2 percentage of total | Cell Cycle Distribution, sub G ([4]; HCT116, 100 μM, 18 h after 6Gy): 3.1 percentage of total | Cell Cycle Distribution, G1 ([4]; HCT116, 250 μM, 18 h after 6Gy): 23.9 percentage of total | Cell Cycle Distribution, G2 + M ([4]; HCT116, 250 μM, 18 h after 6Gy): 65.4 percentage of total | Cell Cycle Distribution, S ([4]; HCT116, 250 μM, 18 h after 6Gy): 4.3 percentage of total | Cell Cycle Distribution, sub G ([4]; HCT116, 250 μM, 18 h after 6Gy): 6.2 percentage of total | Cell Cycle Distribution, G1 ([4]; HCT116, 500 μM, 18 h after 6Gy): 15.4 percentage of total | Cell Cycle Distribution, G2 + M ([4]; HCT116, 500 μM, 18 h after 6Gy): 73.0 percentage of total | Cell Cycle Distribution, S ([4]; HCT116, 500 μM, 18 h after 6Gy): 4.9 percentage of total | Cell Cycle Distribution, sub G ([4]; HCT116, 500 μM, 18 h after 6Gy): 6.4 percentage of total | Checkpoint remark ([4]; HCT116, 500 μM, 18 h after 6Gy): G1 abrogation | Checkpoint abrogation ([4]; HCT116, 6 Gy): abrogated radiation induced G1 arrest | Cell Cycle Distribution, G1 ([5]; HL60, 50 μM, 18 h after 6Gy): 6.1 percentage of total | Cell Cycle Distribution, G2 + M ([5]; HL60, 50 μM, 18 h after 6Gy): 85.5 percentage of total | Cell Cycle Distribution, S ([5]; HL60, 50 μM, 18 h after 6Gy): 2.8 percentage of total | Cell Cycle Distribution, sub G ([5]; HL60, 50 μM, 18 h after 6Gy): 5.9 percentage of total | Cell Cycle Distribution, G1 ([5]; HL60, 100 μM, 18 h after 6Gy): 6.1 percentage of total | Cell Cycle Distribution, G2 + M ([5]; HL60, 100 μM, 18 h after 6Gy): 85.4 percentage of total | Cell Cycle Distribution, S ([5]; HL60, 100 μM, 18 h after 6Gy): 3.3 percentage of total | Cell Cycle Distribution, sub G ([5]; HL60, 100 μM, 18 h after 6Gy): 5.5 percentage of total | Cell Cycle Distribution, G1 ([5]; HL60, 250 μM, 18 h after 6Gy): 5.4 percentage of total | Cell Cycle Distribution, G2 + M ([5]; HL60, 250 μM, 18 h after 6Gy): 83.9 percentage of total | Cell Cycle Distribution, S ([5]; HL60, 250 μM, 18 h after 6Gy): 2.8 percentage of total | Cell Cycle Distribution, sub G ([5]; HL60, 250 μM, 18 h after 6Gy): 8.1 percentage of total | Cell Cycle Distribution, G1 ([5]; HL60, 500 μM, 18 h after 6Gy): 4.4 percentage of total | Cell Cycle Distribution, G2 + M ([5]; HL60, 500 μM, 18 h after 6Gy): 80.0 percentage of total | Cell Cycle Distribution, S ([5]; HL60, 500 μM, 18 h after 6Gy): 4.1 percentage of total | Cell Cycle Distribution, sub G ([5]; HL60, 500 μM, 18 h after 6Gy): 11.8 percentage of total | Checkpoint remark ([5]; HL60, 500 μM, 18 h after 6Gy): Cell Death | Checkpoint abrogation ([5]; HL60, 6 Gy): abrogated radiation induced G1 arrest | Cell Cycle Distribution, G1 ([6]; HT29, 5 μM, 18 h after 6Gy): 31.8 percentage of total | Cell Cycle Distribution, G2 + M ([6]; HT29, 5 μM, 18 h after 6Gy): 41.3 percentage of total | Cell Cycle Distribution, S ([6]; HT29, 5 μM, 18 h after 6Gy): 8.7 percentage of total | Cell Cycle Distribution, sub G ([6]; HT29, 5 μM, 18 h after 6Gy): 17.3 percentage of total | Cell Cycle Distribution, G1 ([6]; HT29, 50 μM, 18 h after 6Gy): 35.4 percentage of total | Cell Cycle Distribution, G2 + M ([6]; HT29, 50 μM, 18 h after 6Gy): 44.7 percentage of total | Cell Cycle Distribution, S ([6]; HT29, 50 μM, 18 h after 6Gy): 8.8 percentage of total | Cell Cycle Distribution, sub G ([6]; HT29, 50 μM, 18 h after 6Gy): 10.3 percentage of total | Cell Cycle Distribution, G1 ([6]; HT29, 100 μM, 18 h after 6Gy): 40.6 percentage of total | Cell Cycle Distribution, G2 + M ([6]; HT29, 100 μM, 18 h after 6Gy): 45.9 percentage of total | Cell Cycle Distribution, S ([6]; HT29, 100 μM, 18 h after 6Gy): 9.0 percentage of total | Cell Cycle Distribution, sub G ([6]; HT29, 100 μM, 18 h after 6Gy): 3.5 percentage of total | Cell Cycle Distribution, G1 ([6]; HT29, 250 μM, 18 h after 6Gy): 24.9 percentage of total | Cell Cycle Distribution, G2 + M ([6]; HT29, 250 μM, 18 h after 6Gy): 59.4 percentage of total | Cell Cycle Distribution, S ([6]; HT29, 250 μM, 18 h after 6Gy): 12.3 percentage of total | Cell Cycle Distribution, sub G ([6]; HT29, 250 μM, 18 h after 6Gy): 2.7 percentage of total | Cell Cycle Distribution, G1 ([6]; HT29, 500 μM, 18 h after 6Gy): 24.1 percentage of total | Cell Cycle Distribution, G2 + M ([6]; HT29, 500 μM, 18 h after 6Gy): 45.2 percentage of total | Cell Cycle Distribution, S ([6]; HT29, 500 μM, 18 h after 6Gy): 20.4 percentage of total | Cell Cycle Distribution, sub G ([6]; HT29, 500 μM, 18 h after 6Gy): 8.8 percentage of total | Checkpoint remark ([6]; HT29, 500 μM, 18 h after 6Gy): G1 abrogation | Checkpoint abrogation ([6]; HT29, 6 Gy): abrogated radiation induced G1 arrest
